Test results from patent publication US12053475B2, “TRPC ion channel inhibitors for use in therapy” (UNIVERSITY OF LEEDS, priority 2017, dated 2024).

Assays:
TRPC5 [1] = target: T1, TRPC5 (Homo sapiens, UniProt Q9UL62); design: host or cells: HEK239 (so in the source); settings: HEK239 cells expressing TRPC5; Naylor et al.; cited from earlier work
T1 sequence (Q9UL62 1-973): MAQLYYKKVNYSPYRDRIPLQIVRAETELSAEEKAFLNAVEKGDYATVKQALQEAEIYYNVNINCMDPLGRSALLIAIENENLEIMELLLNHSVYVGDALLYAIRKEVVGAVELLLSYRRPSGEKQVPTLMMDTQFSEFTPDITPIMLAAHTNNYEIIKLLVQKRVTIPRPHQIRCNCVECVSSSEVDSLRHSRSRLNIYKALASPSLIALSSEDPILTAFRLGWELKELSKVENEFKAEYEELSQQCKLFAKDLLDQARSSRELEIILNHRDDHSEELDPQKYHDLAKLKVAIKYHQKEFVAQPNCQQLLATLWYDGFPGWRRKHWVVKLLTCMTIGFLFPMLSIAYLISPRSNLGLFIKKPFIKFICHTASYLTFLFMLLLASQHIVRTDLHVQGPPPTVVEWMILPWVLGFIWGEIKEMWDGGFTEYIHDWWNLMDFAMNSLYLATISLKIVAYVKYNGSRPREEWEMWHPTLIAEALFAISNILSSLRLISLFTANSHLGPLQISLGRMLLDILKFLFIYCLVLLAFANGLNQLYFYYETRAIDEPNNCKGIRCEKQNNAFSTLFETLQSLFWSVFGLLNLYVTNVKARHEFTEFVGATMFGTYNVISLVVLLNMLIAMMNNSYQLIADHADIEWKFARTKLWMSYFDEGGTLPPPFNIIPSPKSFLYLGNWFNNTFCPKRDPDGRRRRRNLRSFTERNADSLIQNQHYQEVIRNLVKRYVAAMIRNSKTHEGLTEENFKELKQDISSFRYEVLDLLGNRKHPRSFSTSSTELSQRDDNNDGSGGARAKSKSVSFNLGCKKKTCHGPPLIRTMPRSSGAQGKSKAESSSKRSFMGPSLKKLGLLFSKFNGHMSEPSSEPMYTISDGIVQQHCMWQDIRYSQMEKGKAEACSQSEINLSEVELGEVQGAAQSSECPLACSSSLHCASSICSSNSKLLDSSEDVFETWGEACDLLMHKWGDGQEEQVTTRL

TRPC5 [2] = target: T1, TRPC5; design: host or cells: HEK239 (so in the source); settings: Mol Pharmacol. 2014; cited from earlier work
human TRPC4 = target: T2, human TRPC4 (Homo sapiens, UniProt Q9UBN4); experiment: Intracellular Ca2+ measurement, HEK 293 cells expressing inducible human TRPC4, activated by (−)-Englerin A; assay type: cell-based; settings: 10 μM DE2, 30 min pre-incubation; EA 100 nM; FIG. 12
T2 construct: expressed in transfected cells
T2 sequence (Q9UBN4 1-977): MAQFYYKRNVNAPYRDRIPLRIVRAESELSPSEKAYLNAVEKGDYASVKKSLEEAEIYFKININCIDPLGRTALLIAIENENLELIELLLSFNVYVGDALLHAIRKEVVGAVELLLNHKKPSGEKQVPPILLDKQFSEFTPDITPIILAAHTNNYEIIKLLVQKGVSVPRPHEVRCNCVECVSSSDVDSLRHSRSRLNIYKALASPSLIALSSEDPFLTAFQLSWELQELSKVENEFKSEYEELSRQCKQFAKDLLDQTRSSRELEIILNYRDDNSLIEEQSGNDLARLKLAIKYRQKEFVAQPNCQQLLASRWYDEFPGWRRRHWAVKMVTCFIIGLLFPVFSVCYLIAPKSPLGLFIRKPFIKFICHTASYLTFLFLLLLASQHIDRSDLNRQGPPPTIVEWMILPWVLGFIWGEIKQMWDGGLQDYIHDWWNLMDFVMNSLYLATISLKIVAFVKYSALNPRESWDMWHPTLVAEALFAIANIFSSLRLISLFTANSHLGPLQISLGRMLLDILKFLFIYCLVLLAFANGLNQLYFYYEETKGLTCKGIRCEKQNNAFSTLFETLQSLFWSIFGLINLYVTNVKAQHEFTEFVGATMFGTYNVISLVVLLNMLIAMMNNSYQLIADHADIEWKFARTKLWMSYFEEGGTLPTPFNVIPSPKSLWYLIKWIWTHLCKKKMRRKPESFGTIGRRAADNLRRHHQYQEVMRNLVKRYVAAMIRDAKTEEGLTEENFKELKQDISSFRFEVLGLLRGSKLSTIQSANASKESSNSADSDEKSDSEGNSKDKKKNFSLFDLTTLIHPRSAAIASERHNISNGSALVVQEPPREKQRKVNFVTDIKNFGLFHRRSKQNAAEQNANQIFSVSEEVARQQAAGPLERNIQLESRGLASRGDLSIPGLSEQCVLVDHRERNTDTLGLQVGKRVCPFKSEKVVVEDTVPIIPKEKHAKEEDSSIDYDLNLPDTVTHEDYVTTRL
Description: (§1) Cell culture Mouse stromal vascular fraction (SVF) cells from subcutaneous adipose tissue were isolated by mincing of the tissue followed by enzymatic digestion with 0.3 mg·mL^−1 Collagenase type II (Sigma), 0.3 mg·mL^−1 Collagenase type IV (Sigma), 2 mg·mL^−1 BSA (Sigma), 0.08 mg·mL^−1 DNase I (Sigma) and 0.04 mg·mL^−1 Dispase (Thermo Fisher Scientific) in serum free RPMI 1640 media (Gibco) for 45 min at 37° C. in 95% O2 and 5% CO2 environment. Isolated cells were centrifuged and processed through a 100 μm cell strainer. Following centrifugation, the cell pellet was reconstituted in full RPMI 1640 media containing 15% fetal calf serum and 1% penicillin-streptomycin (Gibco). Media was changed on the following day to remove non-adherent cells. […]
(§2) Intracellular Ca^2+ measurement HEK 293 cells containing stable incorporation of inducible TRPC4 or TRPC5 expression were seeded into 96-well clear-bottomed poly-D-lysine-coated black plates (Corning Life Sciences) at 90% confluence 24 hr before the experiment. […] The Fura-2-AM fluorescence was recorded using a 96-well fluorescence plate reader FlexStation II (Molecular Devices) at excitation wavelengths of 340 nm and 380 nm, and the emitted light was collected at 510 nm. […]

[3] = system: adipocytes from subcutaneous white adipose tissue of mice; experiment: Respirometry (oxygen consumption) in adipocytes; assay type: cell-based; settings: 10 μM DE2, 24 hr pre-incubation; vs DMSO; FIG. 13
Description: Protein preparation and immunoblotting Proteins were isolated from cells and tissues using radio-immunoprecipitation assay (RIPA) buffer containing (in mM) 150 NaCl, 20 Tris HCl, 1 EGTA, 1 EDTA, 1% NP-40, 0.1% sodium dodecyl sulfate (SDS) and 1% sodium deoxylate. Complete™ protease inhibitor (Roche Life Science) was added into RIPA fresh before use in accordance with the manufacturer's instructions. Immunoblotting was carried out under standard protocols with primary antibodies anti-UCP1 (1:500, ab23841; Abcam), Cytochrome C (1:4000, ab110325; Abcam), Akt (pan) (1:1000, 4691; Cell Signaling) and Phospho-Akt (Ser473) (1:500, 4060; Cell Signaling). […] The cells were inoculated into the OROBOROS Oxygraph-2k chambers and oxidative phosphorylation analyses were performed using the mitochondrial substrate-uncoupler-inhibitor-titration protocol consisting of: substrate activation using sodium pyruvate, inhibition of ATP synthase using oligomycin, uncoupling via sequential addition of FCCP to maximum oxygen flux, mitochondria complex I and III inhibition using Rotenone and Antimycin A. Traces were analyzed using DatLab 6 Software (OROBOROS), measuring for routine state respiration (routine), mitochondrial leak (leak), maximum uncoupling capacity of the electron transport system (ETS) and rotenone and antimycin A-inhibited residual oxygen consumption (ROX). […]

UCP1 and Cytochrome C = experiment: mRNA analysis of UCP1 and Cytochrome C expression in adipocytes (beiging markers); assay type: cell-based, mice; settings: 10 μM DE2, 24 hr pre-incubation; vs DMSO; FIG. 14
Description: Quantitative RT-PCR analysis RNA from cell and tissue samples was obtained using TRIzol reagent (Thermo Fisher Scientific). 1 μg RNA was reverse-transcribed using High-Capacity cDNA Reverse Transcription Kit (Applied Biosystems) and RT-PCR analysis was performed using SYBR Select Masters Mix (Thermo Fisher Scientific) and LightCycler® 480 (Roche Life Science). The primers used are tabulated in Supplementary Table 1^34. Relative fold-change in expression was calculated using the comparative cycle method (2^−ΔΔCt) Mouse Gapdh gene was used as the reference.
To determine the influence of DE2 and C31 on expression of markers of white-to-brown adipocyte phenotypic switching, transcript accumulation of UCP1 and Cytochrome C was measured by mRNA analysis in adipocytes from subcutaneous white adipose tissue (n=4-5) of C4WT, C5WT, C4KO, and C5KO mice. Cells were pre-incubated with (24 hr) and maintained in 10 μM DE2 or 100 nM C31 where indicated. The vehicle control was DMSO.

TRPC5 [4] = target: T1, TRPC5; experiment: Intracellular Ca2+ measurement, HEK 293 cells expressing inducible human TRPC5, activated by (−)-Englerin A; assay type: cell-based; design: expressed in transfected cells; settings: 10 μM DE2, 30 min pre-incubation; EA 100 nM; FIG. 12
Description: as §1, §2

In the case of `O=C1O[C@H]([C@@H](O)CO)C(O)=C1O` [vitamin C], the “inhibition of TRPC5 ion channel function” value (TRPC5 [1]) is listed as “inhibitors”.
In the case of `O=c1c(O)c(-c2ccccc2)oc2cc(O)cc(O)c12` [galangin], the “inhibition of TRPC5 ion channel function” value (TRPC5 [1]) is given as “inhibitors”.
In the case of `Clc1ccc(Cn2c(CN3CCCC3)nc3ccccc32)cc1` [Clemizole, clemizole], the “inhibition of TRPC5” value (TRPC5 [2]) is given as “potent and selective inhibitor”.
With `CCN(CC)Cc1nc2ccccc2n1Cc1ccc(Cl)cc1` [DE2, ({1-[(4-Chlorophenyl)methyl]-1H-benzimidazol-2-yl}methyl)diethylamine] the “inhibition of TRPC4 channels (intracellular Ca2+)” value (human TRPC4) was “demonstrated inhibition”, the adipocyte mitochondrial respiration [3] was “increases” and the “adipocyte UCP1/Cytochrome C expression” value (UCP1 and Cytochrome C) was “increases”. The “inhibition of TRPC5 channels (intracellular Ca2+)” value (TRPC5 [4]) was “demonstrated inhibition”.
In the case of `Oc1ccc(C=Cc2cc(O)cc(O)c2)cc1` [resveratrol], the “inhibition of TRPC5 ion channel function” value (TRPC5 [1]) is listed as “inhibitors”.
